In US20100222396A1 (Novartis AG, priority 2009, published 2010):

Key:
[1] = biological target: T1, human orexin 1 receptor (hOx1R) (Homo sapiens, UniProt O43613); assay: Calcium accumulation in cells (FLIPR), antagonism of orexin A, hOx1R; format: cell-based; conditions: for inhibition at 10 µM: measured at a concentration of 10 μM of compound (cells marked ^a); for Kd: cells expressing human orexin 1 receptor, IC50 vs orexin A converted by Cheng and Prusoff correction
T1 construct: expressed in transfected cells
T1 sequence (O43613 1-425): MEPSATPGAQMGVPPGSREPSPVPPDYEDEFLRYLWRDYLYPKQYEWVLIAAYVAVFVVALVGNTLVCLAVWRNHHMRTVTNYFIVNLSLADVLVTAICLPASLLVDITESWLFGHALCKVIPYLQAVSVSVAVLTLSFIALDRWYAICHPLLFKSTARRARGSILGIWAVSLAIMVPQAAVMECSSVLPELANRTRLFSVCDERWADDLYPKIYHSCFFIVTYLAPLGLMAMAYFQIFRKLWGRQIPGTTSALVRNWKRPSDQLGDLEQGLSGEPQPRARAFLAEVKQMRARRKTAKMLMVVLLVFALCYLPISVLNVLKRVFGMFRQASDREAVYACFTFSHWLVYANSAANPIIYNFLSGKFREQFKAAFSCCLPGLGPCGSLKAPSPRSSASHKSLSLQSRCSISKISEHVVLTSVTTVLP
How it was run: (§1)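 Serum-starved receptor-expressing cells were loaded with Fluo-4-AM (2 μM) plus probenecid (0.1 mM) in HEPES buffer, pH 7.4, with 1% BSA, and Ca2+ fluorescence was read on FLIPR. Compounds (10^−9–10^−5 M) were added first, and orexin A was added one hour later to measure antagonism.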

[2] = biological target: T2, human orexin 2 receptor (hOx2R) (Homo sapiens, UniProt O43614); assay: Radioligand binding assay ([125I]orexin A competition), hOx2R; conditions: CHO or HEK cell membranes, 1 h room temperature
T2 construct: expressed in transfected cells
T2 sequence (O43614 1-444): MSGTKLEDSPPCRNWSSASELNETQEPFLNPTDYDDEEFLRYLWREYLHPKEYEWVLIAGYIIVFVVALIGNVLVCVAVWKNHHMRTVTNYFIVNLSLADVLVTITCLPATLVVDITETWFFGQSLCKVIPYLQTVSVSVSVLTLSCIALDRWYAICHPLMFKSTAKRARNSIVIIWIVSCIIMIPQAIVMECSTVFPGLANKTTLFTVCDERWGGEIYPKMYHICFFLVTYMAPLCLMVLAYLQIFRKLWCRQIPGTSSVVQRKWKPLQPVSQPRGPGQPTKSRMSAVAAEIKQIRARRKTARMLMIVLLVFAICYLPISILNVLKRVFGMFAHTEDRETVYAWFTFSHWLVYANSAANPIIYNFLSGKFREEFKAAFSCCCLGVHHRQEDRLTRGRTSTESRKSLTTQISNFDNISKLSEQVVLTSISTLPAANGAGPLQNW
How it was run: (§2)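 Membranes from CHO or HEK cells expressing the human receptor, incubated 1 h at room temperature with […] [125I]orexin A and compound in HEPES pH 7.5 buffer with BSA, MgCl2, CaCl2 and tween.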

[3] = biological target: T2, human orexin 2 receptor (hOx2R); assay: Calcium accumulation in cells (FLIPR), antagonism of orexin A, hOx2R; format: cell-based; conditions: cells expressing human orexin 2 receptor; IC50 vs orexin A converted by Cheng and Prusoff correction
How it was run: as §1

[4] = biological target: T1, human orexin 1 receptor (hOx1R); assay: Radioligand binding assay ([125I]orexin A competition), hOx1R; conditions: CHO or HEK cell membranes, 1 h room temperature
How it was run: as §2

Row | SMILES | inhibition at 10 µM [1] [%] | Kd [2] [nM] | Kd [3] [nM] | Kd [4] [nM] | Kd [1] [nM]
1 | CN(C(=O)c1ccccc1)[C@H](CCNC(=O)c1cccc2c1OCO2)Cc1ccccc1 [Example 32, Benzo[1,3]dioxole-4-carboxylic acid [(S)-3-(benzoyl-methyl-amino)-4-phenyl-butyl]-amide] | 24 | 435 | 67 | > 10000 | –
2 | CN(C(=O)c1ccc2c(c1)OCO2)[C@H](CCNC(=O)c1ccccn1)Cc1ccc(Cl)cc1 [Example 25, Pyridine-2-carboxylic acid [(S)-3-[(benzo[1,3]dioxole-5-carbonyl)-methyl-amino]-4-(4-chloro-phenyl)-butyl]-amide] | – | 308 | 36 | 2220 | 1000
3 | CN(C(=O)c1ccc(C(F)(F)F)c(C(F)(F)F)c1)[C@H](CCNC(=O)c1ccccn1)Cc1ccccc1 [Example 77, Pyridine-2-carboxylic acid {(8)-3-[(3,4-bis-trifluoromethyl-benzoyl)-methyl-amino]-4-phenyl-butyl}-amide] | 25 | 3710 | 581 | 8420 | –
4 | COc1cc(OC)cc(C(=O)N(C)[C@H](CCNC(=O)c2cccn2C)Cc2ccccc2)c1 [Example 104, 1-Methyl-1H-pyrrole-2-carboxylic acid {(S)-3-[(3,5-dimethoxy-benzoyl)-methyl-amino]-4-phenyl-butyl}-amide] | – | 6 | 4 | 123 | 609
5 | CCCCC(=O)NCCC(Cc1ccccc1)N(C)C(=O)c1cc(C(F)(F)F)cc(C(F)(F)F)c1 (stereo not shown) [Example 39, N-(1-Benzyl-3-pentanoylamino-propyl)-N-methyl-3,5-bis-trifluoromethyl-benzamide] | 0 | 610 | 419 | > 10000 | –
6 | CCN(C(=O)c1ccc2c(c1)OCO2)[C@H](CCNC(=O)c1ccccn1)Cc1ccccc1 [Example 8, Pyridine-2-carboxylic acid {(S)-3-[(benzo[1,3]dioxole-5-carbonyl)-ethyl-amino]-4-phenyl-butyl}-amide] | – | 46 | 32 | 270 | 211
7 | CN(C(=O)c1cccc(OC(F)(F)F)c1)[C@H](CCNC(=O)c1cccn1C)Cc1ccccc1 [Example 123, 1-Methyl-1H-pyrrole-2-carboxylic acid {(S)-3-[methyl-(3-trifluoromethoxy-benzoyl)-amino]-4-phenyl-butyl}-amide] | – | 30 | 7 | 1580 | 865
8 | COc1ccc(C(=O)N(C)[C@H](CCNC(=O)c2ccccn2)Cc2ccccc2)cc1OC [Example 9, Pyridine-2-carboxylic acid {(S)-3-[(3,4-dimethoxy-benzoyl)-methyl-amino]-4-phenyl-butyl}-amide] | – | 46 | 145 | 474 | 1400
9 | CN(C(=O)c1cccc2c1OCO2)[C@H](CCNC(=O)c1nc2ccccc2n1C)Cc1ccccc1 [Example 19, 1-Methyl-1H-benzoimidazole-2-carboxylic acid {(8)-3-[(benzo[1,3]dioxole-4-carbonyl)-methyl-amino]-4-phenyl-butyl}-amide] | – | 131 | 114 | 793 | 1120
10 | CN(C(=O)c1ccc2c(c1)OCO2)[C@H](CCNC(=O)c1cccn1C)Cc1ccccc1 [Example 76] | – | 4 | 1 | 94 | 376
11 | CN(C(=O)c1ccc2ccccc2c1)[C@H](CCNC(=O)c1ccccn1)Cc1ccc(F)cc1 [Example 58, Pyridine-2-carboxylic acid {(S)-4-(4-fluoro-phenyl)-3-[methyl-(naphthalene-2-carbonyl)-amino]-butyl}-amide] | 1 | 3430 | 1060 | 2300 | –
12 | COc1cccc(C(=O)N(C)[C@H](CCNC(=O)c2cccn2C)Cc2ccccc2)c1 [Example 103, 1-Methyl-1H-pyrrole-2-carboxylic acid {(S)-3-[(3-methoxy-benzoyl)-methyl-amino]-4-phenyl-butyl}-amide] | – | 19 | 8 | 624 | 1400
13 | Cc1cc(C)cc(C(=O)N(C)[C@H](CCNC(=O)c2ccccn2)Cc2ccccc2)c1 [Example 97, Pyridine-2-carboxylic acid {(S)-3-[(3,5-dimethyl-benzoyl)-methyl-amino]-4-phenyl-butyl}-amide] | – | 30 | 39 | 46 | 185
14 | CN(C(=O)c1cccc(Br)c1)[C@H](CCNC(=O)c1nc2ccccc2n1C)Cc1ccccc1 [Example 102, 1-Methyl-1H-benzoimidazole-2-carboxylic acid {(S)-3-[(3-bromo-benzoyl)-methyl-amino]-4-phenyl-butyl}-amide] | – | 2 | 1 | 28 | 18
15 | CN(C(=O)c1cc(C(F)(F)F)cc(C(F)(F)F)c1)C(CCNC(=O)c1ccccc1)Cc1ccccc1 (stereo not shown) [Example 17, N-(3-Benzoylamino-1-benzyl-propyl)-N-methyl-3,5-bis-trifluoromethyl-benzamide] | 36 | 107 | 41 | 8790 | –
16 | Cc1nc(C(=O)NCC[C@H](Cc2ccccc2)N(C)C(=O)c2ccc3c(c2)OCO3)c(-c2ccccc2F)s1 [Example 83, 5-(2-Fluoro-phenyl)-2-methyl-thiazole-4-carboxylic acid {(S)-3-[(benzo[1,3]dioxole-5-carbonyl)-methyl-amino]-4-phenyl-butyl}-amide] | – | 21 | 3 | 54 | 42
17 | CN(C(=O)c1cccc2[nH]ccc12)[C@H](CCNC(=O)c1nc2ccccc2n1C)Cc1ccccc1 [Example 3, 1-Methyl-1H-benzoimidazole-2-carboxylic acid {(S)-3-[(1H-indole-4-carbonyl)-methyl-amino]-4-phenyl-butyl}-amide] | – | 10 | 3 | 17 | 48
18 | CN(C(=O)c1ccc2ccccc2c1)[C@H](CCNC(=O)c1ccccn1)Cc1ccccc1 [Example 21, Pyridine-2-carboxylic acid {(S)-3-[methyl-(naphthalene-2-carbonyl)-amino]-4-phenyl-butyl}-amide] | – | 203 | 174 | 62 | 70
19 | CN(C(=O)c1ccc2[nH]ccc2c1)[C@H](CCNC(=O)c1ccccn1)Cc1ccccc1 [Example 7, 1H-Indole-5-carboxylic acid {(S)-1-benzyl-3-[(pyridine-2-carbonyl)-amino]-propyl}-methyl-amide] | – | 41 | 40 | 7 | 16
20 | Cc1cc(F)cc(C(=O)N(C)[C@H](CCNC(=O)c2cccn2C)Cc2ccccc2)c1 [Example 124, 1-Methyl-1H-pyrrole-2-carboxylic acid {(S)-3-[(3-fluoro-5-methyl-benzoyl)-methyl-amino]-4-phenyl-butyl}-amide] | – | 39 | 13 | 599 | 710
21 | CN(C(=O)c1cccc2ccccc12)[C@H](CCNC(=O)c1ccccn1)Cc1ccc(Cl)cc1 [Example 35, Pyridine-2-carboxylic acid {(S)-4-(4-chloro-phenyl)-3-[methyl-(naphthalene-1-carbonyl)-amino]-butyl}-amide] | – | 468 | 9 | 1330 | 80
22 | CN(C(=O)c1cc(C(F)(F)F)cc(C(F)(F)F)c1)C(CCNC(=O)c1ccc2c(ccn2C)c1)Cc1ccccc1 (stereo not shown) [Example 60, 1-Methyl-1H-indole-5-carboxylic acid {3-[(3,5-bis-trifluoromethyl-benzoyl)-methyl-amino]-4-phenyl-butyl}-amide] | – | 3860 | 362 | 17500 | 3470
